For experiment [1], the target named is Rho-associated protein kinase 1 (Homo sapiens) (UniProt Q13464). Briefly: Selectivity interaction (KinomeScan (DiscoverX)) EUB0000695a ROCK1. To be noted: at 100 nM.
Experiment [2] deals with T1, Serine/threonine-protein kinase TAO2 (Homo sapiens) (UniProt Q9UL54).
T1 sequence (whole entry): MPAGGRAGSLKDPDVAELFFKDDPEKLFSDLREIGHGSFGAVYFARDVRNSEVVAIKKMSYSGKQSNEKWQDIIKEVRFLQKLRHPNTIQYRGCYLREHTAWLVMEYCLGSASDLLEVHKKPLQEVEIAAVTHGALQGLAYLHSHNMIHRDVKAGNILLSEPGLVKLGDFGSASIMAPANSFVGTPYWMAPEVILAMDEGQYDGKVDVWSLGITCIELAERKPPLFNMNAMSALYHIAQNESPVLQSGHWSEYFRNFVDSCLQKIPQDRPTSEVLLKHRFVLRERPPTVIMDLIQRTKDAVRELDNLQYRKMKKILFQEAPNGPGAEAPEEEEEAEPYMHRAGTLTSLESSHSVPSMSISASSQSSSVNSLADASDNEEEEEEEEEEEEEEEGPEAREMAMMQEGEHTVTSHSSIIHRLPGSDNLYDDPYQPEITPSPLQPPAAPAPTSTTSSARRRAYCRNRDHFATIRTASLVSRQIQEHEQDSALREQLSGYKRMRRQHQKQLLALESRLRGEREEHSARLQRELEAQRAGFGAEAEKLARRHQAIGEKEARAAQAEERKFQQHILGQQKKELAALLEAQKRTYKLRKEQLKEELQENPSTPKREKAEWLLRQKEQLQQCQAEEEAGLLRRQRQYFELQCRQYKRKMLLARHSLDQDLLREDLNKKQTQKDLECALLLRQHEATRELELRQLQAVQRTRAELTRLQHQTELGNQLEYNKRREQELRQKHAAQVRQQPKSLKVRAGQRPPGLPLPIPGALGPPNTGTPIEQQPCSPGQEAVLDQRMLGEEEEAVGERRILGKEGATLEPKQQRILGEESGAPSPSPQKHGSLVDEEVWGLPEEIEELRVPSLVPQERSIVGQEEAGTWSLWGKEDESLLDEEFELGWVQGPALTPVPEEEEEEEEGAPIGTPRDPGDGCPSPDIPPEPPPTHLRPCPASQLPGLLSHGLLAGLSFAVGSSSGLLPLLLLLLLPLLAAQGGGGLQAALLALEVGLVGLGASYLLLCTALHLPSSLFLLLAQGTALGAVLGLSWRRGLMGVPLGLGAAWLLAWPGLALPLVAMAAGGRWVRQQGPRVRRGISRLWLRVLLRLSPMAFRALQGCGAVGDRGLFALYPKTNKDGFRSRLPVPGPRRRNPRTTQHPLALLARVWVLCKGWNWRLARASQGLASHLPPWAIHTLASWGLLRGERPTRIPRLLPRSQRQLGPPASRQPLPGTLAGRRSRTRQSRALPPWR
Nature of the experiment: Selectivity interaction (Kinase panel (Z-LYTE Assay)) EUB0001632a TAOK2. The settings on record: at 10 µM.

Experiment [3] addresses Phosphatidylinositol 3-kinase catalytic subunit type 3 (Homo sapiens, UniProt Q8NEB9). Nature of the experiment: Selectivity interaction (Adapta Assay) EUB0001632a PIK3C3. The settings on record: at 10 µM.
Experiment [4] concerns the target T2, Serine/threonine-protein kinase ULK3 (Homo sapiens) (UniProt Q6PHR2).
T2 sequence (whole entry): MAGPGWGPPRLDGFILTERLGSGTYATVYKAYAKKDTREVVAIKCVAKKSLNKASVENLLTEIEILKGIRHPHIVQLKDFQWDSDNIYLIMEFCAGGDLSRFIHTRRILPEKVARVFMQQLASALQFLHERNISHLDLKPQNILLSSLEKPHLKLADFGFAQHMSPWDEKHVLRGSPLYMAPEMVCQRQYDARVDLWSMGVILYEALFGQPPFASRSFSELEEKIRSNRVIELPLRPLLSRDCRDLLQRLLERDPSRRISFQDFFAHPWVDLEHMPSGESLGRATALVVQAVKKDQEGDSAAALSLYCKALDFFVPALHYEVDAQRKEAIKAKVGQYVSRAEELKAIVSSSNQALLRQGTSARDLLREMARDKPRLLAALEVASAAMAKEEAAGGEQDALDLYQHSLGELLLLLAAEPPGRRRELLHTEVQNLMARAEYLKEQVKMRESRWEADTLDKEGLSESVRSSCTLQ
Briefly: Selectivity interaction (ActivX KiNativ screen (kinase selectivity in THP-1 cell lysates)) EUB0000639a ULK3. The format is subcellular. The settings on record: lysate, at 0.04 µM.

Experiment [5] has as its target T3, MAP/microtubule affinity-regulating kinase 4 (Homo sapiens) (UniProt Q96L34).
T3 sequence (whole entry): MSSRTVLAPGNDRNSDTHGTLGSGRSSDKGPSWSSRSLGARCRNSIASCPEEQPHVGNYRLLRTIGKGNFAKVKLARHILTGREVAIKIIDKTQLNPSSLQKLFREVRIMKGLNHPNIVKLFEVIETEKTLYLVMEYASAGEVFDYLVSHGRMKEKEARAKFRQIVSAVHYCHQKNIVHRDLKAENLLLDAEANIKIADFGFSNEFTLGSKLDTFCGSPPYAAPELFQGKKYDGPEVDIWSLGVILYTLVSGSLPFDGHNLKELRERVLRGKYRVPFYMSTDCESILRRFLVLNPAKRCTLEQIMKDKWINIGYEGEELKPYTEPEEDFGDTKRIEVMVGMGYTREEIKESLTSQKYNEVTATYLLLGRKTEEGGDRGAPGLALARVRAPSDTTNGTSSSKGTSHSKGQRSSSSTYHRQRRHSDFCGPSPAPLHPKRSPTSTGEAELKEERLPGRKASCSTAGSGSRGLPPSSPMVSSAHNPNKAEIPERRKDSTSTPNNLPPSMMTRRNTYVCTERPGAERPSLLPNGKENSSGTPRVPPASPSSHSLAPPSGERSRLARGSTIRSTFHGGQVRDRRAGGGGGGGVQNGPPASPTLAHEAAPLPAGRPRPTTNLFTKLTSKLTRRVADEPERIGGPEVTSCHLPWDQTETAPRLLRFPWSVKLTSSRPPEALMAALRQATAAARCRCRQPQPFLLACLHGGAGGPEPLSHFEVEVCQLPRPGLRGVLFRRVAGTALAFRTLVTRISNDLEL
Briefly: Selectivity interaction (ActivX KiNativ screen (kinase selectivity in THP-1 cell lysates)) EUB0000639a MARK4. Type of experiment: subcellular. The settings on record: lysate, at 5 µM.

Rho-associated protein kinase 1 (Homo sapiens), sequence (Q13464 2-1354 limits assumed): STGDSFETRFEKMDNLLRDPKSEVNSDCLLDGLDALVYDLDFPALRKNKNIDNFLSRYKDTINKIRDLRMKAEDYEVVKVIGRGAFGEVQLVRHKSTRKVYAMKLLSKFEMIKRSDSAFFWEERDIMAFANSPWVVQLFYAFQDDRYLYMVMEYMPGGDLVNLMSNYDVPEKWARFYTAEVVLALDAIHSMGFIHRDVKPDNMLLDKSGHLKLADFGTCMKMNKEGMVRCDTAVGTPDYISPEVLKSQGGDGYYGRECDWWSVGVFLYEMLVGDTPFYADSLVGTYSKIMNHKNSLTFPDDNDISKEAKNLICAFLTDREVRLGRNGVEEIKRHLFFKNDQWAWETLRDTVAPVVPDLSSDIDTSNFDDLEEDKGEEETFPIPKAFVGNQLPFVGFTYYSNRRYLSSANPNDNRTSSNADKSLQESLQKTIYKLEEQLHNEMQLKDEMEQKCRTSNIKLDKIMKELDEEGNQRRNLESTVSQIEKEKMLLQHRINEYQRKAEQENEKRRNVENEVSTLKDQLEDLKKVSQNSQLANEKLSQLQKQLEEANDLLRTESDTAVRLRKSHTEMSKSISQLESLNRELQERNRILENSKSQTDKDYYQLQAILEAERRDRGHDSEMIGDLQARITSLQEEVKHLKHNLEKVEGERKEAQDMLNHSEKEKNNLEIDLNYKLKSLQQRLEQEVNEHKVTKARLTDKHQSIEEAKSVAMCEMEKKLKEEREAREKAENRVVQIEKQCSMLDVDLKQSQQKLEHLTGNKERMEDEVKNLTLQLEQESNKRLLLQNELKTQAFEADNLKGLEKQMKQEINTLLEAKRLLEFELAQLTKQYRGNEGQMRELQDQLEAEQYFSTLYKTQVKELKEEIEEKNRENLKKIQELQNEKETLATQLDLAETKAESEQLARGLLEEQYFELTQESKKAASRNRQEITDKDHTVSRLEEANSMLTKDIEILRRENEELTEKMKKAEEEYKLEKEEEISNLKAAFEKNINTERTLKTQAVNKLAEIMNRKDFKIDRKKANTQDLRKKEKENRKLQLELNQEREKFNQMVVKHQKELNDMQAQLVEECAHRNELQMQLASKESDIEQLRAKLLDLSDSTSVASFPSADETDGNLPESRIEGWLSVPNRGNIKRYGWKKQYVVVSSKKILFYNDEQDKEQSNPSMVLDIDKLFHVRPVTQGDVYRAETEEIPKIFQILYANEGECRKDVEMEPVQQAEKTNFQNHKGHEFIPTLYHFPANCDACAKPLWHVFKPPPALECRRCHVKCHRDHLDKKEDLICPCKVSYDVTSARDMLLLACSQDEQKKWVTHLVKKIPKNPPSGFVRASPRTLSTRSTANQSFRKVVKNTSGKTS
Phosphatidylinositol 3-kinase catalytic subunit type 3, sequence (Q8NEB9 whole entry): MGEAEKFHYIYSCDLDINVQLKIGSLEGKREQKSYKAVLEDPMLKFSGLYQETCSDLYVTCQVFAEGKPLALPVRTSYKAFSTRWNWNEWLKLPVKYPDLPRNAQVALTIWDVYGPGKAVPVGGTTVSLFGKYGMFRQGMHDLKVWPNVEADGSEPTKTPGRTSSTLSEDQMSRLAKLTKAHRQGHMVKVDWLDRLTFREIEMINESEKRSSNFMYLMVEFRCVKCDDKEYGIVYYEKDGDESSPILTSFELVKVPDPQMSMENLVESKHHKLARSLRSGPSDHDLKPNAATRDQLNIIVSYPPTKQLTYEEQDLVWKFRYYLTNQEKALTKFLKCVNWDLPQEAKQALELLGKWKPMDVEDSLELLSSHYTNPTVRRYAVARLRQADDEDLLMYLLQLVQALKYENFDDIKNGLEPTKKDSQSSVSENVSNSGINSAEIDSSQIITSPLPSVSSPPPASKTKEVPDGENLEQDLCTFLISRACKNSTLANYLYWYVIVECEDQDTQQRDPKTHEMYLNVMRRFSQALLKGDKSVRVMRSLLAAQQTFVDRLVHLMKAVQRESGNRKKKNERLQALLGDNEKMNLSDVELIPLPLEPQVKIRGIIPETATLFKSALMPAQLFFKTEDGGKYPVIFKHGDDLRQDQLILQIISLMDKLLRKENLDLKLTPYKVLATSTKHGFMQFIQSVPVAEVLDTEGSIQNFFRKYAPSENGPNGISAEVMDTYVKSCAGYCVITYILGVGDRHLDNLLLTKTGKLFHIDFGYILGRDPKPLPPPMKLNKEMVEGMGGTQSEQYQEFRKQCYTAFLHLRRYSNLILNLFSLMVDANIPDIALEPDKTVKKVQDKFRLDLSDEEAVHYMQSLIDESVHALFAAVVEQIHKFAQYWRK

As to `Cc1cc(F)c(C(=O)Nc2cccc(-c3nncn3C(C)C)n2)cc1-n1cnc(C2CC2)c1`, in experiment [1], the % of control is 99%.
In experiment [2], `Cn1cc(-n2cnc3c(NCc4nc5cc(Cl)c(Cl)cc5[nH]4)nc(N4CCOCC4)nc32)cn1` registered a % of control of 41.6%. The % of inhibition in experiment [3] is -28%.
In the case of `CC[C@@H]1[C@H](F)C(=O)N[C@@H]1COc1nccc2cc(C(N)=O)c(OC)cc12` [ZIMLOVISERTIB], the % of inhibition in experiment [4] is -22.9%; in experiment [5], 27.1%.

The values are drawn from ChEMBL document CHEMBL5465560, “Selectivity Literature for EUbOPEN Chemogenomic Library” (2024).
